# Data from the supplement of paper PMC10307832.
# Experiments:
# Assay in all cases: relative viability (nuclei count vs DMSO), 5 days (fraction); higher = more cells survive
# [1] = compound: C1CC2=C(C1)C=C(C=C2)OC3=NC(=C4C(=N3)N(C=N4)CC5=CC=C(C=C5)C6=CC=CC=C6)N[C@@H](CC7=CC=CC=C7)CO [QS11]
# In short: (§1)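 Lung cancer cell lines in 1536-well plates were exposed by pinning to five library-drug doses (not always all listed) √10 apart, following an overnight hold at 37 °C. MetaXpress counted Hoechst-stained nuclei from 4× images taken after 5 days without medium change. Viability is the median ratio of treated-well to vehicle-well nuclei across plates. Plates required control CV below 25% and at least one doubling.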
# [2] = compound: CC1=C(C=C(C=C1)NC(=O)C2=CC(=CC=C2)C(C)(C)C#N)NC3=CC4=C(C=C3)N=CN(C4=O)C [AZ628]
# In short: as §1
# [3] = compound: C[As](C)SC[C@H](NC(=O)CC[C@H](N)C(=O)O)C(=O)NCC(=O)O [Darinaparsin]
# In short: as §1
# [4] = compound: C1CC2=C(C1)C=C(C=C2)OC3=NC(=C4C(=N3)N(C=N4)CC5=CC=C(C=C5)C6=CC=CC=C6)N[C@@H](CC7=CC=CC=C7)CO [QS11] + CC(=O)Nc1cccc(-n2c(=O)n(C3CC3)c(=O)c3c(Nc4ccc(I)cc4F)n(C)c(=O)c(C)c32)c1 [Trametinib] (partner 0.02 µM)
# In short: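 Nuclei were stained with Hoechst during a one-step fixation (final 0.05% Triton X-100, 1% formaldehyde, 1 ug/ml Hoechst) carried out 5 days after dosing, then counted on 4× images. The cells, lung cancer lines in 1536-well plates, had been dosed by pin tool the day after seeding with one drug alone or a fixed anchor-drug dose plus five library-drug doses (not always all listed) in √10 steps. Relative viability is the nuclei count in treated wells divided by that in vehicle wells, and each value is the median of duplicate plates.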
cell line,measurement,setting,value
LCLC-97TM1,relative viability,[1]; 0.253 µM,1.15
same,relative viability,[1]; 2.53 µM,0.998
same,relative viability,[1]; 8 µM,0.84
same,relative viability,[2]; 0.08 µM,1.17
same,relative viability,[2]; 0.253 µM,0.849
same,relative viability,[2]; 0.8 µM,0.765
same,relative viability,[2]; 2.53 µM,0.761
same,relative viability,[2]; 8 µM,0.199
same,relative viability,[3]; 0.08 µM,1.13
same,relative viability,[3]; 0.8 µM,0.834
same,relative viability,[3]; 2.53 µM,1
same,relative viability,[3]; 8 µM,1.02
same,relative viability,[4]; first compound 0.253 µM,0.213
same,relative viability,[4]; first compound 2.53 µM,0.223
same,relative viability,[4]; first compound 8 µM,0.277
